Results on 6 compounds are retold here after ChEMBL document CHEMBL1136214, “Indole-based heterocyclic inhibitors of p38alpha MAP kinase: designing a conformationally restricted analogue” (Bioorg Med Chem Lett, 2003).

As usually defined, the IC50 is the concentration that inhibits the measured activity by half.

Mitogen-activated protein kinase 14, sequence (Q16539 whole entry): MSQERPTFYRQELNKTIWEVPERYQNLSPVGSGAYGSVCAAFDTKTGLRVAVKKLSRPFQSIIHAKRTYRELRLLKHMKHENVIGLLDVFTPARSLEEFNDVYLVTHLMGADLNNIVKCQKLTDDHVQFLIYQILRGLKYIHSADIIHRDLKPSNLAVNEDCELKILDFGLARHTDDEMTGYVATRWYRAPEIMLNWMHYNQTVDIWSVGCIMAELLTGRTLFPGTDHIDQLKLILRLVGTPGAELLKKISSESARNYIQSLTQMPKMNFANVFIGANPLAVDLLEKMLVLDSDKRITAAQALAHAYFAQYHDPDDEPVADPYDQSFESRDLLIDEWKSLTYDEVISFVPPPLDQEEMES

The assay has as its target Mitogen-activated protein kinase 14 (Homo sapiens, UniProt Q16539). The experiment in a line: Inhibition of Mitogen-activated protein kinase p38 alpha.
In the case of `O=C(c1cccc2cc[nH]c12)N1CCN(Cc2ccccc2)CC1`, the IC50 is > 30000 nM.

In the case of `COc1cc2[nH]ccc2cc1C(=O)N1C[C@H](C)N(Cc2ccccc2)C[C@H]1C`, 20 nM corresponded to half-maximal inhibition (IC50). `C[C@@H]1CN(Cc2ccccc2)[C@@H](C)CN1C(=O)c1ccc2[nH]ccc2c1` gave a half-maximal inhibitory concentration (IC50) of 1300 nM. This IC50 is about 65-fold higher than that of the compound before.

Compound `COc1cc2[nH]ccc2cc1C(=O)N1C[C@@H](C)N(Cc2ccccc2)C[C@@H]1C` had a half-maximal inhibitory concentration (IC50) of 1650 nM. In the case of `COc1cc2[nH]ccc2cc1C(=O)N1CCN(Cc2ccccc2)CC1` it was 950 nM; in that of `COc1cc2[nH]ccc2cc1C(=O)N1C[C@H](C)N(Cc2ccccc2)C[C@H]1C` (racemic), 70 nM.
